In patent EP0562849A2, “Steroid derivatives” (priority 1992, dated 1993):
Several values for one entry are separate records, joined by “and”; a condition that tells them apart may be missing. Equal entries are not always repeated. Where two headings read alike, the source gives them in different places.

Key:
Syrian Golden hamsters = test: In vivo serum cholesterol lowering in hamsters fed a cholesterol test diet; details: hamsters; for inhibition in vivo at 100 mg/kg/day: Mesocricetus auratus, feed or water, 168 h, 0.2% (w/w) in diet for one week (100 mg/kg/day), negative values = serum cholesterol increased relative to control, read-out: Percent Lowering of Cholesterol from Control Value Mean; for Serum Cholesterol Mean: 0.2% (w/w) in Cholesterol Test Diet for one week, equivalent to 100 mg/kg/day, groups of six, control mean 337
Protocol: Syrian Golden hamsters were fed a cholesterol test diet made of 10% coconut oil and 0.12% cholesterol (by weight) in Purina 5001 Rodent Chow to induce hypercholesteriolemia.
After two weeks on the cholesterol test diet the hamsters were bled from the orbital sinium under light CO2 anesthesia. Serum was prepared and analyzed for cholesterol using a commercial test kit (Cholesterol High Performance, Single Vial™, product of Boehringer Mannheim Corp., Indianapolis, IN, USA). The hamsters were separated into groups of six animals, such that each group had approximately the same mean serum cholesterol levels. Selected compounds of the invention were incorporated into the Cholesterol Test Diet at 0.2% (w/w) and fed to the hamsters for one week. A control group of hamsters continued on the Cholesterol Test Diet during the same one-week period. The dose of test compounds of the invention was equivalent to 100 mg/kg/day based on the weight of the hamsters and their diet consumption. Upon completion of the test period, the animals were bled and serum cholesterol determined as above.
Mean serum cholesterol values from the test hamsters were compared to values from the control group and tested for significance at the Z.05 level using Dunnett's test.

[1] = test system: human LDL receptor promoter; test: in vitro Luciferase Activity Test (LDL receptor promoter-luciferase reporter in recombinant CHO cells); format: cell-based; design: MED: unit not given here; details: for Emax: Homo sapiens, CHO, read-out: MA%; for Emax / MA%: maximum activity (%) over control; for MED: minimum effective dose (molar concentration, unit not given), 24 hr, assay medium with 0.5 µg/ml 25-hydroxycholesterol; for RED: relative effective dose compared to compound of Example 4, below one = more active
Protocol: A 1546 base pair sequence of the human LDL receptor promoter was amplified using the polymerase chain reaction. A reaction mixture containing 20 pMoles each of the synthetic oligonucleotides 5'-[…]-3' (Seq. I.D. No: 1) and 5'-AAG-[…]-3', (Seq. I.D. No:2) 1 µg human genomic DNA purified from the adenocarcinoma cell line P3UCLA, 200 µM each of dATP, dGTP, dCTP, and TTP, 2.5 units of Taq DNA polymerase, 10mM Tris-HCI pH 8.3, 50 mM KCI, […], 0.1% gelatin in a final volume of 100 µl was subjected to 30 cycles of 15 sec at 96°C, 30 sec at 55°C, and 1 min at 72°C. The material was subject to gel electrophoresis on a 1% agarose gel and the 1546 base pair band was isolated and restriction enzyme digested with Hind III and Nde I. This fragment was ligated into the plasmid pSP72 (ProMega Biotech), which had previously been restriction enzyme nuclease digested with Hind III and Nde I. The resulting vector, pNLDLRP, was restriction endonulease digested with Ndel and Hind III and the material was again run on a 1% agarose gel to reisolate the 1546 bp LDL receptor sequence.
Plasmid vector PSv2 was constructed by digesting plasmid pSv2-globin with Hind III and Bgl II then ligating an Nrul-Xhol linker into the vector. Plasmid pSv2 globin is disclosed in U.S. Patent No. 4,775,624, the entire teaching of which is herein incorporated by reference. The linker contained the following sequences: [formula] (Seq. I.D. No: 3), and [formula] ' (Seq. I.D. No:4).
The resulting vector was designated pSv2-H NXB because it contained a […], an Nrul site, an Xhol site and a Bgl site. The Hind III-Bgl II fragment of plasmid pAlc4(NRRL B-18783), which contains the firefly luciferase gene, was then ligated into the Hin III-Bgl site of plasmid pSv2-HNXB. A neomycin resistance-conforming gene was then ligated into the Bam HI site of the resultant plasmid to form plasmid pSv2.
A 1546 base pair fragment was isolated and cloned into a Ndel and Hind III (partial) restriction digested vector pSv2 containing the firefly luciferase reporter gene and a gene for neomycin resistance. The resulting vector, pLDL-Luc1 Neo-10, contains the human LDL receptor promoter driving expression of the firefly luciferase gene, a gene coding for neomycin resistance, ampicillin resistant marker and an origin of replication.
Plasmid pLDL-Luc 1 Neo-10 was used to stably transfect Chinese Hamster Ovary cells using a Lipofection Reagent kit and procedure from Gibco BRL Research Products Division Life Technologies Inc. Transformants were selected by picking individual colonies grown in Dulbecco's modified Eagle's medium supplimented with 10% fetal bovine serum and containing 500 µg per ml […]. […] Clone S27/B30 was used for subsequent screening.
In developing a cell based screen it is important to have a negative control. The viral SV40 promoter is ideal for this purpose in that it has a number of SP1 elements that enhance gene transcription. These elements are not under the control of end product repression; but they do have a high degree of sequence homology with the 16 base pair long sterol response element found in the LDL receptor promoter. The SV40 promoter should therefore be a sensitive mechanism to screen out agents that induce nonspecific transcription.
Chinese Hamster Ovary cells were stably cotransfected with a vector pSV2AL-A 5' containing the SV40 promoter driving expression of the firefly luciferase gene and a second vector pSV2 NeoBam containing a neomycin resistant marker. Transfections were carried out using the Lipofectin Reagent kit and procedure from Gibco BRL Research Products Division Life Technologies Inc. Transformants were selected by picking individual colonies grown in Dulbecco's modified Eagle's medium supplemented with 10% fetal bovine serum and containing 500 µg per ml of geneticin. Individual clones were selected, lysed and assayed for luciferase production. […]

[2] = NA is not active, 30% luciferase activity cutoff point (footnote 1)
[3] = tests using 30% luciferase activity cutoff point (footnote 1)
[4] = 30% luciferase activity cutoff point (footnote 1)
[5] = 15% luciferase activity cutoff point (footnote 2)
[6] = tests using 15% luciferase activity cutoff point (footnote 2)

Row | SMILES | inhibition in vivo at 100 mg/kg/day (Syrian Golden hamsters) [%] | Serum Cholesterol Mean (Syrian Golden hamsters) [mg/dL] | Emax [1, 2] [%] | MED [1, 3] | RED [1, 4] | Emax [1, 5] [%] | MED [1, 6] | RED [1, 5] | MA% [1, 2] | MA% [1, 5]
1 | C/C=C/C[C@@H]1[C@H](O)CC[C@@]2(C)[C@H]1CC[C@@H]1[C@@H]2CC[C@]2(C)[C@@H]([C@H](C)CCCC(C)C)CC[C@@H]12 [Example 4, [4a(E),5a]-4-(2-butenyl)cholestan-3a-ol] | 37.8 | 210 | 80 | 2.2 | 1.00 | – | – | – | – | –
2 | C=CC[C@@H]1[C@H](N)CC[C@@]2(C)[C@H]1CC[C@@H]1[C@@H]2CC[C@]2(C)[C@@H]([C@H](C)CCCC(C)C)CC[C@@H]12 [Example 86] | -37.4 | 464 | 89 | 5.6 | 2.0 | – | – | – | – | –
3 | CCC[C@@H]1[C@H](O)CC[C@@]2(C)[C@H]1CC[C@@H]1[C@@H]2CC[C@]2(C)[C@@H]([C@H](C)CCCC(C)C)CC[C@@H]12 [Example 87] | 31.2 | 222 | 14 | 23.2 | 8.3 | – | – | – | – | –
4 | C=CC[C@@H]1C[C@@]2(C)[C@@H](CC[C@@H]3[C@@H]2CC[C@]2(C)[C@@H]([C@H](C)CCCC(C)C)CC[C@@H]32)C[C@@H]1O [Example 77, (2a, 3a, 5a)-2-(2-propenyl)cholestan-3-ol] | 38 | 209 | 60 | 40.8 | 4.6 | – | – | – | – | –
5 | CC(C)CCC[C@@H](C)[C@H]1CC[C@H]2[C@@H]3CCC4[C@H](Cc5ccc(O)cc5)[C@H](O)CC[C@]4(C)[C@H]3CC[C@]12C (stereo partly drawn) [Example 36, 4a-(4-hydroxybenzyl)cholestan-3a-ol] | 22.6 | 261 | – | – | – | 20 | 40 | 17.6 | – | –
6 | CC(C)CCC[C@@H](C)[C@H]1CC[C@H]2[C@@H]3CCC4[C@H](Cc5ccc(OC(F)(F)F)cc5)[C@H](O)CC[C@]4(C)[C@H]3CC[C@]12C (stereo partly drawn) [Example 30, 4a-(4-trifluoromethoxybenzyl)cholestan-3a-ol] | 38 | 209 | – | 17.3 and 8.9 | – | 76 | 8.9 | 3.2 | 65% and 92% | –
7 | C=CC[C@H]1C2CC[C@@H]3[C@H](CC[C@]4(C)C(OCCCC(C)C)CC[C@@H]34)[C@@]2(C)CC[C@H]1O (stereo partly drawn) [Example 66, (3α,4α)-17-[(4-methylpentyl)oxy]-4-(2-propenyl)androstan-3-ol] | 30.7 | 234 | – | – | – | – | – | – | 73% and 100% and 105% and 118% | –
8 | C=CC[C@H]1C2CC[C@@H]3[C@H](CC[C@]4(C)C(OCc5ccccc5)CC[C@@H]34)[C@@]2(C)CC[C@H]1O (stereo partly drawn) [Example 68, (3α,4α)-17-(phenylmethoxy)-4-(2-propenyl)androstan-3-ol] | 8.6 | 309 | 42 | – | – | – | – | – | 33% and 39% | –
9 | C=CC[C@@H]1[C@H](NC(C)=O)CC[C@@]2(C)[C@H]1CC[C@@H]1[C@@H]2CC[C@]2(C)[C@@H]([C@H](C)CCCC(C)C)CC[C@@H]12 [Example 81, N-[(3α,4α,5α,20β)-4-(2-propenyl)cholestan-3-61]acetamide] | -7.8 | 364 | 32 | 44.9 | 7.9 | – | – | – | – | –
10 | CC(C)CCC[C@@H](C)[C@H]1CC[C@H]2[C@@H]3CCC4[C@H](Cc5ccc(F)cc5)[C@H](O)CC[C@]4(C)[C@H]3CC[C@]12C (stereo partly drawn) [Example 23, 4a-(4-fluorobenzyl)cholestan-3a-ol] | 46.3 | 181 | – | – | – | 49 | – | – | – | 37%
11 | CC(C)CCC[C@@H](C)[C@H]1CC[C@H]2[C@@H]3CCC4[C@H](Cc5ccc(I)cc5)[C@H](O)CC[C@]4(C)[C@H]3CC[C@]12C (stereo partly drawn) [Example 25, 4a-(4-iodobenzyl)cholestan-3a-ol] | 28.8 | 240 | – | – | – | – | – | – | – | 89% and 64% and 79%
